Results taken from patent publication US9758502B2, “Dihydropyrone compounds and herbicides comprising the same” (SUMITOMO CHEMICAL COMPANY, LIMITED, priority 2012, dated 2017).

Test system: Echinochloa crus-galli
Test: Test 1-1 Post-emergence Treatment Test
Format: in vivo
Conditions: sprayed on whole plants at 1-2 leaf stages, treatment amount 1,000 g/10,000 m^2, after 20 days of the treatment, greenhouse
Protocol: Here an efficacy for controlling weeds on the present compound was visually observed and evaluated in 11 criteria of 0 to 10 (0 represents no action, 10 represents complete death and the intermediate efficacy were evaluated in 1 to 9 criteria).
Commercial soil for propagation was put in a pot measuring 8 cm in diameter and 6.5 cm in height, and in the pot, seeds of Echinochloa crus-galli were sown, and then covered with soil of about 0.5 cm thickness and the plants were grown in a greenhouse. When the plants were grown to 1-2 leaf stages, a predetermined amount of a chemical diluted solution containing a compound (1-1) was uniformly spayed on the whole plants. Here the chemical diluted solution was prepared by dissolving a predetermined amount of the compound (1-1) in dimethylformamide solution containing 2% of Tween 20 (polyoxyetylene sorbitan fatty acid ester) (manufactured by MP Biomedicals Inc.) and then diluting the solution with deionized water. After spraying, plants were grown in a greenhouse and after 20 days of the treatment, the efficacy for Echinochloa crus-galli was observed and the controlling effect was evaluated.
Similarly, the present compounds (1-2) to (1-11) and (1-13) were also tested.

CCc1cc(C)cc(CC)c1C1=C(O)CC(C(C)CS(=O)(=O)c2ccc(C(F)(F)F)cn2)OC1=O (stereo not shown) [(1-13)]
efficacy for controlling weeds (visually observed, 11 criteria of 0 to 10): ≥ 9
